Assay results reported in patent US8263083B2, “Combination therapy with antibody-drug conjugates” (priority 2007, dated 2012).
Read-outs that look alike come from different tables or passages of the source.

What was measured:
L540cy HL tumors = test: Antitumor activity on subcutaneous L540cy HL tumors in SCID mice; format: in vivo; details: for Median TGD (FIG. 6) (days to triple): Vinblastine q4dx3
Description: (§1) SCID mice were implanted with L540cy HL cells in the right flank.
as §1
SCID mice were implanted with L540cy HL cells in the right flank. Groups of mice (5-10/group) were untreated or received cAC10-vcMMAE (1 mg/kg, q4dx3, ip) alone, Gemcitabine (120 mg/kg, q4dx3, ip) alone, or combination treatment with cAC10-vcMMAE and Gemcitabine when tumor sizes averaged approximately 100 mm^3.
SCID mice were implanted with L540cy HL cells in the right flank. Groups of mice (5-10/group) were untreated or received cAC10-vcMMAE (1 mg/kg, q4dx3, ip) alone, Gemcitabine (120 mg/kg, q4dx3, ip) alone, or combination treatment with cAC10-vcMMAE and Gemcitabine, when tumor sizes averaged approximately 300 mm^3.
as §1, §1
(§2) SCID mice were implanted with L540cy HL cells in the right flank. Groups of mice (5-10/group) were untreated or received cAC10-vcMMAE (1 mg/kg, q4dx3, ip) alone, Vinorelbine alone (4 mg/kg q5dx3), or combination treatment cAC10-vcMMAE and vinorelbine when tumor sizes averaged approximately 100 mm^3.
as §2
SCID mice were implanted with L540cy HL cells in the right flank. Groups of mice (5-10/group) were untreated or received cAC10-vcMMAE (1 mg/kg, q4dx3, ip) alone, Doxorubicin alone (3 mg/kg q4dx3), or combination treatment with cAC10-vcMMAE and doxorubicin when tumor sizes averaged approximately 100 mm^3.
SCID mice were implanted with L540cy HL cells in the right flank. Groups of mice (5-10/group) were untreated or received cAC10-vcMMAE (1 mg/kg, q4dx3, ip) alone, Doxorubicin alone (1.5 mg/kg q4dx3), or combination treatment with cAC10-vcMMAE and doxorubicin when tumor sizes averaged approximately 100 mm^3.
SCID mice were implanted with L540cy HL cells in the right flank. Groups of mice (7-10/group) were untreated or received cAC10-vcMMAE (1 mg/kg, q4dx3, ip) alone, Vinblastine alone ([…] q4dx3), or combination treatment with cAC10-vcMMAE and vinblastine when tumor sizes averaged approximately 300 mm^3.
SCID mice were implanted with L540cy HL cells in the right flank. Groups of mice (6-8/group) were untreated or received cAC10-vcMMAE (1 mg/kg, q4dx3, ip) alone, Gemcitabine (120 mg/kg, q4dx3, ip) alone, or combination treatment with cAC10-vcMMAE and Gemcitabine when tumor sizes averaged approximately 100 mm^3.
as §1

[1] = system: relapsed or refractory HL; details: cited from earlier work
[2] = FIG. 5A, first experiment, ~100 mm^3, cAC10-vcMMAE 1 mg/kg q4dx3 ip, Doxorubicin 3 mg/kg q4dx3
[3] = FIG. 5B, second experiment, ~100 mm^3, cAC10-vcMMAE 1 mg/kg q4dx3 ip, Doxorubicin 1.5 mg/kg q4dx3
[4] = ~100 mm^3, cAC10-vcMMAE 1 mg/kg q4dx3 ip, Gemcitabine 120 mg/kg q4dx3 ip
[5] = ~300 mm^3, cAC10-vcMMAE 1 mg/kg q4dx3 ip, Gemcitabine 120 mg/kg q4dx3 ip
[6] = FIG. 7, second study, ~100 mm^3, cAC10-vcMMAE 1 mg/kg q4dx3 ip, Gemcitabine 120 mg/kg q4dx3 ip
[7] = FIG. 6, ~300 mm^3, cAC10-vcMMAE 1 mg/kg q4dx3 ip, Vinblastine 0/1 mg/kg q4dx3
[8] = FIG. 6, ~300 mm^3, cAC10-vcMMAE 1 mg/kg q4dx3 ip
[9] = FIG. 4A, first experiment, ~100 mm^3, cAC10-vcMMAE 1 mg/kg q4dx3 ip, Vinorelbine 4 mg/kg q5dx3
[10] = FIG. 4B, second experiment, ~100 mm^3, cAC10-vcMMAE 1 mg/kg q4dx3 ip, Vinorelbine 4 mg/kg q5dx3

Molecule | Median TGD (FIG. 5A) (days to quadruple) (L540cy HL tumors; [2]) [days] | durable responses, animals/group (L540cy HL tumors; [2]) | Median TGD (FIG. 5B) (days to quadruple) (L540cy HL tumors; [3]) [days] | durable responses, animals/group (L540cy HL tumors; [3]) | Median TGD (FIG. 2A) (days to quadruple) (L540cy HL tumors; [4]) [days] | Median TGD (FIG. 2B) (days to triplicate) (L540cy HL tumors; [5]) [days] | Median TGD (FIG. 7) (days to quadruple) (L540cy HL tumors; [6]) [days] | durable responses, animals/group (L540cy HL tumors; [6]) | durable responses, animals/group (L540cy HL tumors; [7]) | Median TGD (FIG. 6) (days to triple) (L540cy HL tumors; [8]) [days] | Median TGD (FIG. 4A) (days to quadruple) (L540cy HL tumors; [9]) [days] | durable responses, animals/group (L540cy HL tumors; [9]) | Median TGD (FIG. 4B) (days to quadruple) (L540cy HL tumors; [10]) [days] | durable responses, animals/group (L540cy HL tumors; [10]) | also measured
COc1cccc2c1C(=O)c1c(O)c3c(c(O)c1C2=O)C[C@@](O)(C(=O)CO)C[C@@H]3O[C@H]1C[C@H](N)[C@H](O)[C@H](C)O1 [Doxorubicin, reference compound] | 32 | 0/3 | 27.2 | 0/9 |  |  |  |  |  |  |  |  |  |  | 
Nc1ccn([C@@H]2O[C@H](CO)[C@@H](O)C2(F)F)c(=O)n1 [Gemcitabine, 4-amino-1-[(2R,4R,5R)-3,3-difluoro-4-hydroxy-5-(hydroxymethyl)oxolan-2-yl]pyrimidin-2-one, reference compound] |  |  |  |  | 5 | 15.5 | 42 | 1/6 |  |  |  |  |  |  | response rates ([1]; relapsed/refractory setting, majority of patients with prior autologous or allogeneic transplant, Venkatesh et al. 2004): 22%; response rates ([1]; transplant naive setting, relapsed or refractory HL patients, Santoro et al. 2000): 39%; durable responses, animals/group (L540cy HL tumors; FIG. 8, at day 51, experiment not yet complete, ~100 mm^3, cAC10-mcMMAF 1 mg/kg q4dx3 ip, Gemcitabine 120 mg/kg q4dx3 ip): 0/10
CC[C@]1(O)C[C@@H]2CN(CCc3c([nH]c4ccccc34)[C@@](C(=O)OC)(c3cc4c(cc3OC)N(C)[C@H]3[C@@](O)(C(=O)OC)[C@H](OC(C)=O)[C@]5(CC)C=CCN6CC[C@]43[C@@H]65)C2)C1 [Vinblastine, reference compound] |  |  |  |  |  |  |  |  | 0/10 | 30.93 |  |  |  |  | 
CCC1=C[C@@H]2CN(C1)Cc1c([nH]c3ccccc13)[C@@](C(=O)OC)(c1cc3c(cc1OC)N(C)[C@H]1[C@@](O)(C(=O)OC)[C@H](OC(C)=O)[C@]4(CC)C=CCN5CC[C@]31[C@@H]54)C2 [Vinorelbine, reference compound] |  |  |  |  |  |  |  |  |  |  | 28 | 0/6 | 34.4 | 0/9 | 
cAC10-vcMMAE: antibody-drug conjugate: chimeric AC10 anti-CD30 antibody linked via MC-val-cit-PAB to monomethyl auristatin E | 64 | 1/6 | 78.8 | 4/10 | 34 | 39.5 | 78.01 | 1/7 | 1/8 | 45.9 | 64 | 1/6 | 78.8 | 4/10 | effect on tumors compared to control treatment (L540cy HL tumors; FIG. 1A, monotherapy, tumors eventually progressed): induced tumor regressions and significant tumor growth delays; Median TGD (FIG. 1A) (days to quadruple) (L540cy HL tumors; FIG. 1A, treatment started at tumor size ~100 mm^3, cAC10-vcMMAE 1 mg/kg q4dx3 ip, ABVD: Adriamycin 1 mg/kg q4dx3 iv, Bleomycin 7.5 u/kg q4dx3 ip, Vinblastine 0.015 mg/kg q4dx3 ip, Dacarbazine 20 mg/kg q3dx4 ip): 63 days; durable responses (durable tumor regressions; absence of palpable tumor), animals/group (L540cy HL tumors; FIG. 1A, ~100 mm^3, cAC10-vcMMAE 1 mg/kg q4dx3 ip, ABVD full dose): 4/9; Median TGD (FIG. 1B) (days to triple) (L540cy HL tumors; FIG. 1B, treatment started at ~300 mm^3, cAC10-vcMMAE 1 mg/kg q4dx3 ip, ABVD: Adriamycin 0.75 mg/kg q4dx3 iv, Bleomycin 6 u/kg q4dx3 ip, Vinblastine 0.01 mg/kg q4dx3 ip, Dacarbazine 15 mg/kg q3dx4 ip): 41 days; durable responses, animals/group (L540cy HL tumors; FIG. 1B, ~300 mm^3, cAC10-vcMMAE 1 mg/kg q4dx3 ip, ABVD dosages reduced by 25%): 2/10; durable responses, animals/group (L540cy HL tumors; FIG. 3A, first experiment, ~100 mm^3, cAC10-vcMMAE 1 mg/kg q4dx3 ip, GVD): 4/9; Median TGD (FIG. 3A) (days to quadruple) (L540cy HL tumors; FIG. 3A, first experiment, ~100 mm^3, cAC10-vcMMAE 1 mg/kg q4dx3 ip, GVD: gemcitabine 60 mg/kg q4dx3 ip, vinorelbine 2 mg/kg q5dx3 ip, doxorubicin 1.5 mg/kg q4dx3 iv): 84.6 days; durable responses, animals/group (L540cy HL tumors; FIG. 3B, second experiment, ~100 mm^3, cAC10-vcMMAE 1 mg/kg q4dx3 ip, GVD): 0/7; Median TGD (FIG. 3B) (days to quadruple) (L540cy HL tumors; FIG. 3B, second experiment, ~100 mm^3, cAC10-vcMMAE 1 mg/kg q4dx3 ip, GVD: gemcitabine 60 mg/kg q4dx3 ip, vinorelbine 2 mg/kg q5dx3 ip, doxorubicin 1.5 mg/kg q4dx3 iv): 54.7 days
